# Source: patent US20020137929A1, “1 - (3-heterocyclylphenyl) isothiourea, -isourea, -guanidine and -amidine herbicidal agents” (Intellectual Property Department, BASF Aktiengesellschaft, priority 1998, published 2002)
# Columns and labels:
# [1] = test system: SETVI (Foxtail, Green); experiment: Postemergence herbicidal evaluation; assay type: in vivo, Setaria viridis; conditions: postemergence
# Summary of the method: (§1)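 Each compound, dispersed in an acetone/water mix (50/50) carrying 0.5% TWEEN 20, is nozzle-sprayed at 40 psi on approximately two-week-old seedlings at about 0.0156–0.500 kg/ha. Plants are assessed 4–5 weeks afterward on a 0–9 scale relative to control; duplicate tests are averaged.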
# [2] = test system: ORYSAT (Rice, Tebonnet); experiment: Postemergence herbicidal evaluation; assay type: in vivo, Oryza sativa, (L.) Tebonnet; conditions: postemergence
# Summary of the method: as §1
# [3] = test system: ZEAMX (Corn, Field); experiment: Postemergence herbicidal evaluation; assay type: in vivo, Zea mays; conditions: postemergence
# Summary of the method: as §1
# [4] = test system: ECHCG (Barnyardgrass); experiment: Preemergence herbicidal evaluation; assay type: in vivo, Echinochloa crus-galli; conditions: rated 4-5 weeks after treatment
# Summary of the method: (§2)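 Preemergence soil application of compound, sprayed in aqueous acetone at rates equivalent to about 0.0156 to 0.500 kg per hectare onto freshly sown cups. Plant response was judged by eye on a 0-9 scale four to five weeks later.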
# [5] = test system: SETVI (Foxtail, Green); experiment: Preemergence herbicidal evaluation; assay type: in vivo, Setaria viridis; conditions: rated 4-5 weeks after treatment
# Summary of the method: as §2
# [6] = test system: TRZAWR (Wheat, Winter, cv Riband); experiment: Preemergence herbicidal evaluation; assay type: in vivo, Triticum aestivum; conditions: rated 4-5 weeks after treatment
# Summary of the method: as §2
# [7] = test system: ZEAMX (Corn, Field); experiment: Preemergence herbicidal evaluation; assay type: in vivo, Zea mays; conditions: rated 4-5 weeks after treatment
# Summary of the method: as §2
# [8] = test system: ECHORC (Watergrass (Calif.)); experiment: Preemergence weed control under flooded paddy conditions; assay type: in vivo, Echinochloa oryzoides; conditions: rated 3-4 weeks after treatment
# Summary of the method: (§3)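 Flooded-pot preemergence screen with silt loam and seeds in the upper 0.5 cm. Dose about 0.0313 to 0.500 kg/ha, delivered into flood water; visual 0-9 score after 3 to 4 weeks.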
# [9] = test system: CYPIR (Rice Flatsedge); experiment: as above; assay type: in vivo, Cyperus iria; conditions: rated 3-4 weeks after treatment
# Summary of the method: as §3
# [10] = test system: CYPSE (Flatsedge); experiment: as above; assay type: in vivo, Cyperus serotinus; conditions: rated 3-4 weeks after treatment
# Summary of the method: as §3
compound,measurement,setting,value
"Cn1c(C(F)(F)F)cc(=O)n(-c2cc(N=C3SCC(=O)N3CC(=O)OCC3CC3)c(Cl)cc2F)c1=O [Compound 124, Cyclopropylmethyl 2-{{2-chloro-5-[3,6-dihydro-3-methyl-2,6-dioxo-4-(trifluoromethyl)-1(2H)-pyrimidinyl]-4-fluorophenyl}imino}-4-oxo-3-thiazolidineacetate]",herbicidal rating SETVI,[1]; rate 0.0156 kg/ha,3.0
same,herbicidal rating SETVI,[1]; rate 0.0313 kg/ha,5.0
same,herbicidal rating SETVI,[1]; rate 0.0625 kg/ha,5.0
same,herbicidal rating ORYSAT,[2]; rate 0.0156 kg/ha,3.3
same,herbicidal rating ORYSAT,[2]; rate 0.0313 kg/ha,3.0
same,herbicidal rating ORYSAT,[2]; rate 0.0625 kg/ha,3.0
same,herbicidal rating ZEAMX,[3]; rate 0.0156 kg/ha,6.3
same,herbicidal rating ZEAMX,[3]; rate 0.0313 kg/ha,7.3
same,herbicidal rating ZEAMX,[3]; rate 0.0625 kg/ha,8.0
same,Preemergence herbicidal rating ECHCG,[4]; rate 0.0156 kg/ha,0.0
same,Preemergence herbicidal rating ECHCG,[4]; rate 0.0313 kg/ha,0.0
same,Preemergence herbicidal rating ECHCG,[4]; rate 0.0625 kg/ha,0.0
same,Preemergence herbicidal rating ECHCG,[4]; rate 0.1250 kg/ha,0.0
same,Preemergence herbicidal rating ECHCG,[4]; rate 0.2500 kg/ha,0.0
same,Preemergence herbicidal rating ECHCG,[4]; rate 0.5000 kg/ha,1.0
same,Preemergence herbicidal rating SETVI,[5]; rate 0.0156 kg/ha,0.0
same,Preemergence herbicidal rating SETVI,[5]; rate 0.0313 kg/ha,0.0
same,Preemergence herbicidal rating SETVI,[5]; rate 0.0625 kg/ha,0.0
same,Preemergence herbicidal rating SETVI,[5]; rate 0.1250 kg/ha,0.0
same,Preemergence herbicidal rating SETVI,[5]; rate 0.2500 kg/ha,4.0
same,Preemergence herbicidal rating SETVI,[5]; rate 0.5000 kg/ha,9.0
same,Preemergence herbicidal rating TRZAWR,[6]; rate 0.0156 kg/ha,0.0
same,Preemergence herbicidal rating TRZAWR,[6]; rate 0.0313 kg/ha,0.0
same,Preemergence herbicidal rating TRZAWR,[6]; rate 0.0625 kg/ha,0.0
same,Preemergence herbicidal rating TRZAWR,[6]; rate 0.1250 kg/ha,0.0
same,Preemergence herbicidal rating TRZAWR,[6]; rate 0.2500 kg/ha,0.0
same,Preemergence herbicidal rating TRZAWR,[6]; rate 0.5000 kg/ha,0.0
same,Preemergence herbicidal rating ZEAMX,[7]; rate 0.0156 kg/ha,0.0
same,Preemergence herbicidal rating ZEAMX,[7]; rate 0.0313 kg/ha,0.0
same,Preemergence herbicidal rating ZEAMX,[7]; rate 0.0625 kg/ha,0.0
same,Preemergence herbicidal rating ZEAMX,[7]; rate 0.1250 kg/ha,0.0
same,Preemergence herbicidal rating ZEAMX,[7]; rate 0.2500 kg/ha,0.0
same,Preemergence herbicidal rating ZEAMX,[7]; rate 0.5000 kg/ha,1.0
same,"herbicidal effect rating, ECHORC",[8]; 0.0313 kg/ha,5.0
same,"herbicidal effect rating, ECHORC",[8]; 0.0625 kg/ha,5.0
same,"herbicidal effect rating, ECHORC",[8]; 0.1250 kg/ha,9.0
same,"herbicidal effect rating, ECHORC",[8]; 0.2500 kg/ha,8.0
same,"herbicidal effect rating, CYPIR",[9]; 0.0313 kg/ha,0.0
same,"herbicidal effect rating, CYPIR",[9]; 0.0625 kg/ha,0.0
same,"herbicidal effect rating, CYPIR",[9]; 0.1250 kg/ha,0.0
same,"herbicidal effect rating, CYPIR",[9]; 0.2500 kg/ha,6.0
same,"herbicidal effect rating, CYPSE",[10]; 0.0313 kg/ha,0.0
same,"herbicidal effect rating, CYPSE",[10]; 0.0625 kg/ha,0.0
same,"herbicidal effect rating, CYPSE",[10]; 0.1250 kg/ha,2.0
same,"herbicidal effect rating, CYPSE",[10]; 0.2500 kg/ha,3.0
"CCOC(=O)CN1C(=O)C(SC)SC1=Nc1cc(-n2c(=O)cc(C(F)(F)F)n(C)c2=O)c(F)cc1Cl (stereo not drawn) [Compound 125, Ethyl 2-{{2-chloro-5-[3,6-dihydro-3-methyl-2,6-dioxo-4-(trifluoromethyl)-1(2H)-pyrimidinyl]-4-fluorophenyl}imino}-5-(methylthio)-4-oxo-3-thiazolidineacetate]",herbicidal rating SETVI,[1]; rate 0.0156 kg/ha,2.0
same,herbicidal rating SETVI,[1]; rate 0.0313 kg/ha,5.0
same,herbicidal rating SETVI,[1]; rate 0.0625 kg/ha,5.0
same,herbicidal rating ORYSAT,[2]; rate 0.0156 kg/ha,3.3
same,herbicidal rating ORYSAT,[2]; rate 0.0313 kg/ha,4.0
same,herbicidal rating ORYSAT,[2]; rate 0.0625 kg/ha,3.7
same,herbicidal rating ZEAMX,[3]; rate 0.0156 kg/ha,6.7
same,herbicidal rating ZEAMX,[3]; rate 0.0313 kg/ha,7.3
same,herbicidal rating ZEAMX,[3]; rate 0.0625 kg/ha,8.0
same,Preemergence herbicidal rating ECHCG,[4]; rate 0.0156 kg/ha,0.0
same,Preemergence herbicidal rating ECHCG,[4]; rate 0.0313 kg/ha,0.0
same,Preemergence herbicidal rating ECHCG,[4]; rate 0.0625 kg/ha,0.0
same,Preemergence herbicidal rating ECHCG,[4]; rate 0.1250 kg/ha,3.0
same,Preemergence herbicidal rating ECHCG,[4]; rate 0.2500 kg/ha,7.0
same,Preemergence herbicidal rating ECHCG,[4]; rate 0.5000 kg/ha,9.0
same,Preemergence herbicidal rating SETVI,[5]; rate 0.0156 kg/ha,0.0
same,Preemergence herbicidal rating SETVI,[5]; rate 0.0313 kg/ha,0.0
same,Preemergence herbicidal rating SETVI,[5]; rate 0.0625 kg/ha,5.0
same,Preemergence herbicidal rating SETVI,[5]; rate 0.1250 kg/ha,9.0
same,Preemergence herbicidal rating SETVI,[5]; rate 0.2500 kg/ha,9.0
same,Preemergence herbicidal rating SETVI,[5]; rate 0.5000 kg/ha,9.0
same,Preemergence herbicidal rating TRZAWR,[6]; rate 0.0156 kg/ha,0.0
same,Preemergence herbicidal rating TRZAWR,[6]; rate 0.0313 kg/ha,0.0
same,Preemergence herbicidal rating TRZAWR,[6]; rate 0.0625 kg/ha,1.0
same,Preemergence herbicidal rating TRZAWR,[6]; rate 0.1250 kg/ha,1.0
same,Preemergence herbicidal rating TRZAWR,[6]; rate 0.2500 kg/ha,4.0
same,Preemergence herbicidal rating TRZAWR,[6]; rate 0.5000 kg/ha,5.0
same,Preemergence herbicidal rating ZEAMX,[7]; rate 0.0156 kg/ha,0.0
same,Preemergence herbicidal rating ZEAMX,[7]; rate 0.0313 kg/ha,0.0
same,Preemergence herbicidal rating ZEAMX,[7]; rate 0.0625 kg/ha,3.0
same,Preemergence herbicidal rating ZEAMX,[7]; rate 0.1250 kg/ha,6.0
same,Preemergence herbicidal rating ZEAMX,[7]; rate 0.2500 kg/ha,7.0
same,Preemergence herbicidal rating ZEAMX,[7]; rate 0.5000 kg/ha,7.0
same,"herbicidal effect rating, ECHORC",[8]; 0.0313 kg/ha,2.0
same,"herbicidal effect rating, ECHORC",[8]; 0.0625 kg/ha,4.0
same,"herbicidal effect rating, ECHORC",[8]; 0.1250 kg/ha,7.0
same,"herbicidal effect rating, ECHORC",[8]; 0.2500 kg/ha,7.0
same,"herbicidal effect rating, CYPIR",[9]; 0.0313 kg/ha,3.0
same,"herbicidal effect rating, CYPIR",[9]; 0.0625 kg/ha,6.0
same,"herbicidal effect rating, CYPIR",[9]; 0.1250 kg/ha,7.0
same,"herbicidal effect rating, CYPIR",[9]; 0.2500 kg/ha,9.0
same,"herbicidal effect rating, CYPSE",[10]; 0.0313 kg/ha,2.0
same,"herbicidal effect rating, CYPSE",[10]; 0.0625 kg/ha,4.0
same,"herbicidal effect rating, CYPSE",[10]; 0.1250 kg/ha,9.0
same,"herbicidal effect rating, CYPSE",[10]; 0.2500 kg/ha,9.0
